US7109175B1, “Specific steady-state R-type CA2+ channel blockers and use thereof” (Universite de Sherbrooke, priority 2000, dated 2006)
Entries after “also recorded” stand apart in the source; their conditions may differ.

Key:
mouse paw oedema = experiment: Mouse paw oedema; type: in vivo, mice
Procedure: In this experiment (N=5 to 6 animals per group), the anti-oedemagenic action of compounds MV 8608 and MV 8612 against bradykinin and several mediators which are reported to be involved in the inflammatory processes, was evaluated. The procedures used to perform these experiments have been reported elsewhere (Neves et al., 1993, Eur. J. Pharmacol. 243:213–219; Campos et al., 1995, Br. J. Pharmacol. 114:1005–1013; Campos et al., 1996, Br. J. Pharmacol. 117:793–798; Eur. J. Pharmacol. 316:227–286). […] As reported previously, in rats treated […] prior to a systemic injection of LPS, both B1 and B2 kinin selective agonists caused marked oedema formation (FIGS. 37C and D (Campos et al., 1996, supra)).
When tested in mice, MV 8612 (40 to 160 nmol/paw) inhibited bradykinin and carrageenan-induced paw oedema in mice in a dose-dependent manner (FIGS. 46A and B).

[1] = test system: human lymphocyte proliferation; experiment: Human lymphocyte proliferation in vitro; type: cell-based; conditions: for inhibition of human lymphocyte proliferation: MV 8612 0.02 to 0.32 M, MV 8608 14.5 to 116 M
Procedure: In a separate series of experiments, compounds MV 8612 and MV 8608 were tested to analyze whether they interfered with human lymphocyte proliferation “in vitro”. These experiments were carried out as reported previously (Moraes et al., 1996, Eur. J. Pharmacol. 312:333–339).

[2] = test system: vascular permeability in the rat skin; experiment: Bradykinin-induced skin vascular permeability in rats; type: in vivo; conditions: for increase of vascular permeability caused by bradykinin: MV 8612 8 and 16, MV 8608 27 and 54, i.p.
Procedure: To assess further the anti-inflammatory action of MV 8612 and MV 8608, their effects against the inflammatory responses caused by several mediators of inflammation in a murine model of pleurisy were tested (Saleh et al., 1996, Br. J. Pharmacol. 118:811–819). In addition, both compounds were tested against the increase of vascular permeability caused by bradykinin in the rat skin (Neves et al., 1993b, Phytotherapy Research. 7:356–362).

[3] = test system: TTX-sensitive fast Na^+ current; experiment: Whole-cell voltage clamp, TTX-sensitive fast Na+ current in heart cells; type: cell-based, chick
Procedure: Single cells of different types in culture were prepared from biopsies of human, chick and rabbit. Known and accepted methods for the isolation of fast Na^+ current, T, L and R-type Ca^2+ channels as well as delayed outward K^+ current were used (Bkaily 1994, supra).
The compounds to be tested are added to the appropriate extracellular solution after recording a stable ionic current or normal steady-state level of […]. The effect of different concentrations of compounds are tested on the different type of current and [Ca]i of the different cell types. The effect of each concentration of the compounds in function of the time of exposure are then determined. Once the steady-state effect is reached, the second concentration is added, etc.
In one series of experiments (n=5), the effect of different concentrations of MV8608 (10^−11M to 10^−7M) on the TTX-sensitive fast Na^+ current were tested using the whole-cell voltage clamp technique and experimental conditions reported elsewhere (Bkaily et al., 1988, supra; 1993, supra).
In a series of experiments (n=5), we tested the effect of another MV compound MV8612 on the TTX-sensitive fast Na^+ current (INa) of embryonic chick heart cells using the whole-cell voltage clamp technique described above.

R-type Ca^2+ channel [4] = experiment: Confocal Fluo-3 3-dimension measurement of [Ca]c and [Ca]n, chick heart cells and human aortic VSM cell line; type: cell-based; conditions: for sustained increase of [Ca]c and [Ca]n induced by high PAF: PAF 10^−7M; for sustained depolarization induced sustained increase of [Ca]c and [Ca]n: heart cells, FIG. 29 panel A; for prevention of sustained increase of [Ca]c and [Ca]n: chick heart cells and human aortic VSM cell line
R-type Ca^2+ channel [5] = experiment: Cell-attached single channel recording of R-type Ca2+ channel, human aortic VSM cell line; type: cell-based; conditions: for R-type channel opening (probability, duration, frequency) / R-type single channel current: 10^−7M extra-patch pipette application; for R-type single channel amplitude and probability of opening: nifedipine 10^−6M present
Procedure: Also, for the R-type Ca^2+ channel current, the effect of the compounds are tested on the R-type Ca^2+ channel amplitude, voltage dependency and probability of opening, by using the cell-attached patch clamp technique (Bkaily 1994, supra; 1996, supra) and intra and extra patch pipette application of the drug.
In another series of experiments (n=7), using the cell attached patch clamp technique (Bkaily G. 1994, supra; Bkaily G. et al., 1996, supra), the effect of 10^−7M of MV8608 on the R-type Ca^2+ channel in human aortic vascular smooth muscle cell line was tested. […] In a second series of experiments (n=3), the patch pipette solution was free of MV8608 and after recording the single channel activities at different voltages, MV8608 (final concentration of 10^−7M) was applied to the extra-patch pipette solution containing 140 mM KCl (where the rest of the cell is bathing). This experiment was designed to verify whether MV8608 crossed the cell membrane and if so, whether its effect from the internal side of the channel under the patch is the same as that when applied at the outer side thereof. […] Such a pattern of increase of probability of opening and the open duration accompanied with the sporadic decrease of the single channel current amplitude has never been observed when MV8608 was applied at the outer side of the single channel under the patch pipette.
In another series of experiments (n=7), the effect of 10^−7M of MV8612 was tested on the R-type Ca^2+ in human aortic VSM cells, using the single channel cell attached recording technique and intra and extra patch pipette application of drugs.
In one series of experiments (n=3), MV8612 (total concentration, 10^−7M) was only applied to the patch pipette. […] As for MV8608, in one series of experiments (n=4), MV8612 (10^−7M) was only applied to the extra-patch pipette, in order to verify if the compound penetrates into the cytosol and if so, how it affects the R-type Ca^2+ channel activity.

[6] = test system: writhing response in mice; experiment: Writhing response in mice (acetic acid, acetylcholine, kaolin); type: in vivo; conditions: for acetic acid, acetylcholine and kaolin-induced writhing response: MV 8612 0.25 to 2.5, MV 8608 2.7, i.p., 30 min prior
From the text: The antinociceptive actions of compound MV 8612 and MV 8608 were investigated in different models of nociception in mice as reported previously (Vaz et al., 1996, J. Pharmacol. Exp. Ther. 278:304–312).

[7] = sustained depolarization and PAF 10^−7M
[8] = 40 to 160 nmol/paw co-injection

**Q.** How did the histamine-induced paw oedema (mouse paw oedema; 7.5 and 15, i.p.) turn out when `C[C@]12CC[C@H](O)CC1=CC[C@@H]1[C@@H]2CC[C@]2(C)[C@H]3[C@@H]4OC[C@H]3O[C@@H](O)[C@]12O4` [MV8608, (15R, 16R, 20S)-14, 16:15,20:16,21-triepoxi-15,16-seco 14β, 17α-pregn-5-ene-3β, 15-diol] was run?
**A.** dose-related inhibition

**Q.** What about the serotonin-induced paw oedema (mouse paw oedema; 7.5 and 15, i.p.) of the same compound?
**A.** dose-related inhibition

**Q.** What about the bradykinin-induced paw oedema (mouse paw oedema; 7.5 and 15, i.p., 30 min prior) of the same compound?
**A.** unaffected

**Q.** What about the “inhibition of human lymphocyte proliferation” value [1] of the same compound?
**A.** graded inhibition

**Q.** What about the “increase of vascular permeability caused by bradykinin” value [2] of the same compound?
**A.** antagonised in a dose-related manner

**Q.** What about the “effect on TTX-sensitive fast Na+ current” value ([3]; 10^−11M to 10^−7M, single heart cell, n=5) of the same compound?
**A.** no effect; also recorded: absence of the effect

**Q.** What about the “cytosolic and nuclear Ca2+ sustained overload” value (R-type Ca^2+ channel [4]; 10^−7M, KCl 30 mM and PAF, nifedipine present) of the same compound?
**A.** blocked both the cytosolic and nuclear Ca^2+ sustained overload

**Q.** And the “prevention of depolarization-induced stimulation of R-type channel ([Ca]c, [Ca]n)” value (R-type Ca^2+ channel [4]; 10^−8 M and 10^−7 M)?
**A.** prevented the stimulation of the R-type Ca^2+ channel

**Q.** And the “prevention of high PAF action” value (R-type Ca^2+ channel [4]; PAF 10^−7 M, 10^−9M)?
**A.** succeeded in preventing the high PAF action

**Q.** And the “sustained increase of [Ca]c and [Ca]n induced by high PAF” value (R-type Ca^2+ channel [4]; MV8608 10^−6M)?
**A.** significantly decrease; also recorded: blocked

**Q.** What about the “sustained depolarization induced sustained increase of [Ca]c and [Ca]n” value (R-type Ca^2+ channel [4]) of the same compound?
**A.** blocked completely

**Q.** What about the “prevention of sustained increase of [Ca]c and [Ca]n” value (R-type Ca^2+ channel [4]; [7]) of the same compound?
**A.** preventive effect

**Q.** What about the “R-type channel opening (probability, duration, frequency)” value (R-type Ca^2+ channel [5]) of the same compound?
**A.** increased the probability and duration of opening

**Q.** And the “R-type single channel current” value (R-type Ca^2+ channel [5])?
**A.** spontaneous decrease and release of the blockade of the single channel current

**Q.** And the “R-type single channel conductance” value (R-type Ca^2+ channel [5]; 10^−7M in the patch pipette)?
**A.** without affecting its single channel conductance

**Q.** And the “R-type single channel amplitude and probability of opening” value (R-type Ca^2+ channel [5]; 10^−7M in the patch pipette)?
**A.** decreased the single channel amplitude and probability of opening

**Q.** What about the “acetic acid, acetylcholine and kaolin-induced writhing response” value [6] of the same compound?
**A.** only partial or even no antinociceptive action

**Q.** What does the source list for `COC1CC(OC2C(C)OC(O[C@H]3CC[C@@]4(C)C(=CC[C@@H]5[C@@H]4CC[C@]4(C)[C@H]6[C@@H]7OC[C@H]6O[C@@H](O)[C@]54O7)C3)CC2OC)OC(C)C1OC1CC(OC)C(OC2CC(OC)C(OC3OC(C)C(OC(C)=O)C(OC)C3OC(C)=O)C(C)O2)C(C)O1` (some centres unmarked) [MV8612]?
**A.** histamine-induced paw oedema (mouse paw oedema; 7.5 and 15, i.p.): no significant effect; serotonin-induced paw oedema (mouse paw oedema; 7.5 and 15, i.p.): no significant effect; bradykinin-induced paw oedema (mouse paw oedema; 7.5 and 15, i.p., 30 min prior): dose-dependent inhibition; cellulose sulphate-induced paw oedema (mouse paw oedema; 7.5 and 15, i.p., 30 min prior): dose-dependent inhibition; PAF-acether-induced oedema (mouse paw oedema; 40 to 160 nmol/paw): failed to affect significantly; serotonin-induced oedema (mouse paw oedema; 40 to 160 nmol/paw): failed to affect significantly; bradykinin-induced paw oedema (mouse paw oedema; [8]): inhibited; carrageenan-induced paw oedema (mouse paw oedema; [8]): inhibited; inhibition of human lymphocyte proliferation [1]: graded inhibition; potency ratio MV 8612 versus MV 8608, lymphocyte proliferation ([1]; more potent): about 570 fold; increase of vascular permeability caused by bradykinin [2]: antagonised in a dose-related manner; activity against bradykinin vascular permeability, comparison ([2]; MV 8612 versus MV 8608): more active than MV 8608; further decrease of INa amplitude ([3]; 10^−7M, embryonic chick heart cells): no further decrease; decrease of INa amplitude ([3]; 10^−8M, embryonic chick heart cells): 15%; effect on fast Na+ current ([3]; 10^−9M, embryonic chick heart cells): had no effect; sustained increase of [Ca]c and [Ca]n induced by high PAF (R-type Ca^2+ channel [4]; MV8612 10^−8M): blocked; sustained depolarization induced sustained increase of [Ca]c and [Ca]n (R-type Ca^2+ channel [4]): blocked completely; potency of blocking sustained increase of [Ca]c and [Ca]n, comparison (R-type Ca^2+ channel [4]; [7]): more potent blocker than MV8608; potency of preventing stimulation of R-type channel, comparison (R-type Ca^2+ channel [4]; [7]): equipotent in preventing; prevention of sustained increase of [Ca]c and [Ca]n (R-type Ca^2+ channel [4]; [7]): preventive effect; R-type channel opening (probability, duration, frequency) (R-type Ca^2+ channel [5]): rapidly increased the R-type Ca^2+ opening frequence; R-type single channel current (R-type Ca^2+ channel [5]): small decrease in the single channel current; R-type single channel amplitude and probability of opening (R-type Ca^2+ channel [5]; 10^−7M in the patch pipette): significantly decreased; decrease of R-type single Ca2+ channel current amplitude (R-type Ca^2+ channel [5]; 10^−7M via the patch pipette, n=3): about 75 % of the control value; extent of blocking of R-type channel amplitude and probability of opening, comparison (R-type Ca^2+ channel [5]; intra-patch pipette, MV8612 versus MV8608): superior to that of MV8608; acetic acid, acetylcholine and kaolin-induced writhing response [6]: dose-dependent inhibition; acetic acid-induced writhes, i.c.v. ([6]; MV 8612 4.2 to 42 nmol/site, morphine 0.26 to 13 nmol/site): dose-related antinociception; ID50 ACETIC ACID ([6]; i.p., mice, acetic acid-induced writhes): 2.4 (1.9–2.6) μmol/kg; ID50 ACETYLCHOLINE ([6]; i.p., mice, acetylcholine-induced writhes): 2.2 (2.0–2.3) μmol/kg; ID50 KAOLIN ([6]; i.p., mice, kaolin-induced writhes): 0.4 (0.3–0.6) μmol/kg; potency versus morphine, i.c.v., acetic acid-induced writhes ([6]; less potent than morphine): about 12 fold; potency against kaolin-induced pain versus the other writhing models ([6]; more potent): about 2 fold; potency versus morphine and indomethacin, kaolin-induced writhes ([6]; more potent): about 2 fold
